The series is described as follows: Toxicity study (necropsy, CBC, clinical chemistry) in tumor bearing mice. The settings on record: mouse, in vivo. The series is classed as in vivo, C57BL/6 mice. The method, then:
Six adult female mice were submitted to necropsy. The strain designation of the mice was C57BL/6. […]
Animal studies were performed according to the animal studies protocol approved by Washington University Institutional Animal Care Facility. In vivo studies with mice were performed to compare the effects of SW V-49s, SV119. Erastin, a combination of SV119 with Erastin, and vehicle. […] C57BL/6 mice (6 weeks old. National Cancer Institute Laboratories) were injected in the right flank with 200 μL single cell suspension of KCKO cells in RPMI medium (25×10^4/10^5 cells per mouse). Mice were randomized into four groups (n=15). Treatment was started when the mean tumor diameter was ^˜5 mm. […] Erastin, equimolar mix of SV119 and Erastin. Tumors were measured every other day with a digital caliper. Several mice from different treatment groups were sent to the Division of Comparative Medicine in our institution for pathologic evaluation. Blood was collected for complete blood count (CBC) and biochemical analysis (AST, ALT, BUN, total bilirubin, and Cr). Organs were examined grossly and histologically.

SW IV-134: the “differences in laboratory values (biochemical analysis) versus vehicle” value is “not statistically significant”.

The values above are taken from US10975069B2, “Sigma-2 receptor ligand drug conjugates as antitumor compounds, methods of synthesis and uses thereof” (priority 2014, dated 2021).
